Values of other authors, collected in patent US8263564B2, “Iron-carbohydrate complex compounds” (Vifor (International) AG, priority 2007, dated 2012).

Test system: mice
Conditions: intravenously on mice; Berenbaum et al. 1960 cited in Geisser et al. 1992

## O=S(=O)([O-])[O-].[Fe+2] [Fe(II) sulfate]
  LD50: 11 mg of Fe/kg of body weight
